Laboratory results reported in article PMC9323422 (Angewandte Chemie (International Ed. in English), 2022).

Columns and labels:
[1] = Determination of partition coefficients DCM/water; format: physicochemical; conditions: 24 h, room temperature
Recombinant human PTP1B = target: T1, Recombinant human PTP1B (Homo sapiens, UniProt P18031); format: biochemical
T1 sequence (P18031 1-435): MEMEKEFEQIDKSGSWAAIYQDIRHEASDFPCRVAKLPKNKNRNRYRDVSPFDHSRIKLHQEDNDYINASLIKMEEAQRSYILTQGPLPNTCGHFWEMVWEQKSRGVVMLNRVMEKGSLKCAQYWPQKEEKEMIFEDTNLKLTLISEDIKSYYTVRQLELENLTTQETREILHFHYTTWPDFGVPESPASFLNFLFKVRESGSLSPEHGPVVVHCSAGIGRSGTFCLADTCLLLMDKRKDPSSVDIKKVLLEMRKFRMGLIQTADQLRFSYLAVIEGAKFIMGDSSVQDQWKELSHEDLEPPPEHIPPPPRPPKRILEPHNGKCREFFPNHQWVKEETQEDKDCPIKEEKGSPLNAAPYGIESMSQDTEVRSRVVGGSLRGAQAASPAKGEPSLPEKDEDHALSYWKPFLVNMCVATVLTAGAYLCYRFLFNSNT

[2] = pH 2
PTP1B = conditions: cited from earlier work
Irradiation experiment = format: physicochemical; conditions: 365 nm, 2 h, room temperature, isopropanol/water (70 : 30)

With CNC(=O)C(Cc1ccc(C(F)(F)[P-](F)(F)(F)(F)F)cc1)NC(C)=O (stereo not drawn) [Compound 10] the “Percent compound in DCM (organic phase)” value [1] was 16%.
For NC(Cc1ccc(C(F)(F)[P-](F)(F)(F)(F)F)cc1)C(=O)O (stereo not drawn) [Compound 3, 4‐pentafluoro‐phosphato‐difluoromethyl‐phenylalanine], the Ki (Recombinant human PTP1B) was 61 ± 8 µM, the “increase of affinity to PTP1B relative to phosphonate amino acid 1” value (Recombinant human PTP1B) was 25 fold and the “stability of the pentafluorophosphate anion” value [2] was “stable”.
For FC(F)(c1ccccc1)[P-](F)(F)(F)(F)F [Compound 2], the “Percent compound in DCM (organic phase)” value [1] is listed as 37% and the “affinity, inhibition of PTP1B phosphatase activity” value (PTP1B) is listed as “low, millimolar affinity”.
In the case of NC(Cc1ccc(C(=O)[P-](F)(F)(F)(F)F)cc1)C(=O)O (stereo not drawn) [Compound 12, 4‐(pentafluorophosphato‐carbonyl)‐phenylalanine], the Ki (Recombinant human PTP1B) is reported as 52 ± 7 µM, the “increase of affinity to PTP1B relative to phosphonate amino acid 1” value (Recombinant human PTP1B) is reported as 30 fold and the photostability on irradiation (Irradiation experiment) is reported as “photoconversion of the PF5 residue”.
